Experimental data as given in publication PMC10025480 (Frontiers in Pharmacology, 2023).

Experiments:
[1] = design: method as in Papp et al., 2019; settings: PAH patients; ref Papp et al., 2019; cited from earlier work
[2] = test system: HBE cells (non-CF); test: Short-circuit current (ISC) and transepithelial resistance, non-CF HBE; type: cell-based, human; settings: for Inh172-sensitive ISC / amiloride-sensitive current / magnitude of response to amiloride / forskolin-stimulated current: after compound treatment; for change in transepithelial resistance: vehicle +108 ± 14
Method: (§1) HBE cultured at air-liquid interface (ALI) for 14–21 days were mounted in Ussing chambers in symmetrical Ringers solution containing (in mM): 120 NaCl, 25 NaHCO3, 3.3 KH2PO4, 0.8 K2HPO4, 1.2 CaCl2, 1.2 MgCl2, and 10 glucose, and voltage clamped as described above. In some studies, HBE were pre-treated with IL-13 (10 ng/mL; Peprotech, United Kingdom) for 48 h to increase TMEM16A expression levels ([Caputo et al., 2008]). Amiloride (10 μM; apical) was used to block the spontaneous, ENaC-mediated current, whilst UTP (10 μM; apical) and forskolin (10 μM; apical and basolateral) were added to the bath solutions to activate Ca^2+ and cAMP-dependent anion secretory responses, respectively. Inh172 (30 μM; apical and basolateral) was also used to inhibit CFTR function. The TMEM16A blockers were added to the apical side of the Ussing chambers to evaluate effects on each of these currents.

[3] = test system: CF-HBE cells; test: Short-circuit current (ISC), IL-13 pre-treated CF-HBE; type: cell-based, human
Method: as §1

[4] = test system: human vascular smooth muscle preparations; settings: ref Papp et al., 2019; cited from earlier work
[5] = test system: HEK293 cells; test: Whole-cell patch clamp (QPatch), parental HEK cells lacking TMEM16A; type: cell-based; settings: compared with HEK-TMEM16Aacd cells at 0 nM [Ca2+]i
Method: Current rectification ratios were calculated by dividing the magnitude of the outward current at +90 mV by the magnitude of the inward current at −90 mV.

[6] = target: T1, hTMEM16Aacd (Homo sapiens, UniProt Q5XXA6); test: Whole-cell patch clamp (QPatch), HEK-hTMEM16Aacd cells; type: cell-based
T1 construct: expressed in transfected cells; host or cells: HEK cells
T1 sequence (Q5XXA6 1-986): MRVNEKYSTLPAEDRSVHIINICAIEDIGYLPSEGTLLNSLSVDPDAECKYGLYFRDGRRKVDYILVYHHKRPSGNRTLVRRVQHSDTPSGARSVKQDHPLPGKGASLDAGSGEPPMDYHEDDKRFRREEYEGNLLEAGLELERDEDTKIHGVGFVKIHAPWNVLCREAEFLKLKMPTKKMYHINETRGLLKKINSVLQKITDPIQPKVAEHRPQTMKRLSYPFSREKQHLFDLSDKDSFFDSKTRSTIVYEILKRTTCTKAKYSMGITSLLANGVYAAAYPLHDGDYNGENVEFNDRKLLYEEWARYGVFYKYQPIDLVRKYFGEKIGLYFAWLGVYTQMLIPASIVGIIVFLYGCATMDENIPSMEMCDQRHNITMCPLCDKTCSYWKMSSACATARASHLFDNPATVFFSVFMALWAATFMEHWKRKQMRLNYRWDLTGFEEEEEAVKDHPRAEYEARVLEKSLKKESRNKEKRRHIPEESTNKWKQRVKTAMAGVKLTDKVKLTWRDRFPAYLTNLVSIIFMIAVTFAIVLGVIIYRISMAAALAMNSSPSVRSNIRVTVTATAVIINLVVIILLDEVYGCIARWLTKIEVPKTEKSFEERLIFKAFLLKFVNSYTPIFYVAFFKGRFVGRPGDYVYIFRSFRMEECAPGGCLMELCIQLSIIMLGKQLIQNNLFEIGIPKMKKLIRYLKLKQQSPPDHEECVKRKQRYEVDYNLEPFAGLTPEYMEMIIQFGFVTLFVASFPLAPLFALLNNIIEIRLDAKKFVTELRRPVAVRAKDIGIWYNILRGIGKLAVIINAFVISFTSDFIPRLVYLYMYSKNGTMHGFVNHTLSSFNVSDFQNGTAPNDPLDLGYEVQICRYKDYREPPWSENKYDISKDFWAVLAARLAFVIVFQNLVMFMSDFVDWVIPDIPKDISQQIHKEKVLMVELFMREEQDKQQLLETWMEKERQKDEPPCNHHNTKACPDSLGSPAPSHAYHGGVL
Method: Whole-cell voltage-clamp recordings from FRT-hTMEM16Aabc, HEK-hTMEM16Aacd, and HEK293 cells were made using the QPatch planar patch clamp system as described previously ([Bill et al., 2015]; [Danahay et al, 2020a]). TMEM16A currents were assessed using chloride selective solutions with calculated free [Ca^2+]i tightly buffered at either 415 or 0 nM. Current rectification ratios were calculated by dividing the magnitude of the outward current at +90 mV by the magnitude of the inward current at −90 mV.

[7] = test system: human bronchial smooth muscle; settings: cited from earlier work
[8] = after amiloride, 5 min pre-treatment

Structure (SMILES) | pulmonary artery pressure [1] | Inh172-sensitive ISC [2] | amiloride-sensitive current / magnitude of response to amiloride [2] | forskolin-stimulated current [2] | decline in the baseline ISC ([2]; apical) [%] | change in transepithelial resistance [2] | direct effect on amiloride-insensitive baseline ISC [3] | UTP-stimulated ISC AUC [3, 8] | UTP-stimulated peak increase in ISC [3, 8] | effect on vascular smooth muscle in vitro [4] | effect on currents in parental HEK cell line [5] | effect on TMEM16Aacd currents ([6]; HEK cells, [Ca2+]i clamped at 415 nM, bell shaped concentration response) | EC50 ([6]; HEK-TMEM16Aacd cells, [Ca2+]i clamped to 0 nM (TMEM16A not activated), read-out: EC50, concentration-dependent increase in current) [nM] | reversal potential of induced current ([6]; [Ca2+]i clamped to 0 nM) | relaxation of human bronchial smooth muscle ([7]; ref Danahay et al., 2020b) | effect on freshly isolated human bronchial smooth muscle ([7]; ref Miner et al., 2019) | reduction in the baseline ISC ([2]; 10 µM, within 30 min of addition) [%] | immediate, transient increase in ISC ([3]; 10 µM, vehicle 0.5 ± 0.2) [µAcm^-2] | change to lower baseline ISC than before compound addition ([3]; 10 µM, vehicle −0.3 ± 0.1) [µAcm^-2]
CCc1oc2ccccc2c1C(=O)c1cc(Br)c(O)c(Br)c1 [benzbromarone] | paradoxical increase | attenuated | attenuated | attenuated | 50 | +170 ± 25 Ω cm^2 | Neither Ani9 nor benzbromarone had any direct effect | attenuated | attenuated | relax |  |  |  |  |  |  |  |  | 
O=C(Nc1ccc([N+](=O)[O-])cc1Cl)c1cc(Cl)ccc1O [niclosamide] |  | attenuated | attenuated | attenuated |  | −174 ± 19 Ω cm^2 |  |  | attenuated |  | Quantitatively similar effects | enhancement of currents at low µM | 2700 ± 300 | approximately −50 mV | confirmed | relax | ~90 | 6.8 ± 1.0 | −0.9 ± 0.2
